Assay results as given in paper PMC9672079, “Micro-PET imaging of hepatitis C virus NS3/4A protease activity using a protease-activatable retention probe” (Frontiers in Microbiology, 2022).
Square brackets hold non-standard residues; d marks the D form. Peptide text beside a SMILES is read from it. * marks the point of attachment. FITC = O=C1OC2(c3ccc(O)cc3Oc3cc(O)ccc32)c2ccc(NC(=S)*)cc21; Tyr(3-I) = N[C@@H](Cc1ccc(O)c(I)c1)C(=O)O

Tests used:
[1] = test system: NS3/4A-HCC36 and HCC36 tumors; experiment: Micro-PET imaging of NS3/4A activity in xenograft mice (ROI analysis); assay type: in vivo, BALB/c nude mice; settings: 6 h, n = 3
Procedure: BALB/c nude mice (n = 3) bearing established HCC36 and NS3/4A-HCC36 (100–200 mm^3) in their right and left hind leg, respectively, were anesthetized by halothane vapor with a vaporizer system. The mice were feed the Lugol’s solution and then intravenously injected with 3,700 kBq (in 100 μL) TAT-ΔNS3/4A-^124I-FITC. PET imaging was sequentially performed at 2, 4, and 6 h. To test the specificity of TAT-ΔNS3/4A-^124I-FITC, telaprevir (20 mg/kg/day for 3 days) or control vehicle was intraperitoneally injected into mice (n = 3) 3 days prior to TAT-ΔNS3/4A-^124I-FITC.
The mice were positioned in a micro-PET scanner (R4; Concorde Microsystems, Knoxville, Tenn) with their long axis parallel to the transaxial plane of the scanner. The scanner has a computer-controlled bed with a 10.8-cm transaxial and 8-cm axial field of view. It has no septa and operates exclusively in a three-dimensional list mode. All raw data were first sorted into three-dimensional sinograms, followed by Fourier rebinning and ordered-subsets expectation maximization image reconstruction. Fully three-dimensional list-mode data were collected by using an energy window of 350–750 keV and a time window of 6 nsec. Image pixel size was 0.85 mm transaxially, with a 1.21-mm section thickness. The region of interest was analyzed with ASIPro VM version 5.0 (Concorde Microsystems, Knoxville, TN, USA) analysis software. […]

[2] = test system: NS3/4A-HCC36 and HCC36 tumors; experiment: Biodistribution in xenograft mice, gamma-counter; assay type: in vivo, BALB/c nude mice
Procedure: (§1) In xenograft model, BALB/c nude mice bearing established NS3/4A-HCC36 and HCC36 tumors (n = 3) were intravenously injected with 3,700 kBq (in 100 μL) TAT-ΔNS3/4A-^124I-FITC. In orthotopic model, SCID mice (n = 3) with NS3/4A-HCC36 or HCC36 tumors implanted in the liver were intravenously also injected with 3,700 kBq (in 100 μL) TAT-ΔNS3/4A-^124I-FITC. Animals were killed after anesthesia with pentobarbital (65 mg/kg) at 2, 4, and 6 h. Radioactivity in isolated tumors and tissues was measured with a multichannel gamma-counter. The biodistribution of the probe was expressed as percentage injected dose per gram of tissue (%ID/g).
FIGURE 6 Biodistribution of TAT-ΔNS3/4A-^124I-FITC in xenograft mice. Mice bearing established NS3/4A-HCC36 and HCC36 tumors were injected with 3,700 kBq of TAT-ΔNS3/4A-^124I-FITC. Selected organs and tumors were removed from the mice after 2 (white column), 4 (black column), and 6 (gray column) h. The radioactivity of individual organs was measured using a gamma-counter and normalized for sample weights. The biodistribution of TAT-ΔNS3/4A-^124I-FITC in selected organs was expressed as percentage injected dose/g tissue. Data represent mean ± SEM.

[3] = test system: liver-implanted NS3/4A-HCC36 or HCC36 tumors; experiment: Micro-PET imaging in orthotopic liver implantation tumor model (ROI analysis); assay type: in vivo; settings: SCID mice n = 3, i.v. 3,700 kBq, micro-PET 4 h
Description: The orthotopic liver implantation model was generated as previously described ([Kim et al., 2009]). The NS3/4A-HCC36 tumors or HCC36 tumors from the ectopic tumors were harvested and transplanted into the left liver lobe of SCID mice (n = 3). After 2 weeks, the mice were feed the Lugol’s solution, and then, the 3,700 kBq of TAT-ΔNS3/4A-^124I-FITC was intravenously injected.
The mice were positioned in a micro-PET scanner (R4; Concorde Microsystems, Knoxville, Tenn) with their long axis parallel to the transaxial plane of the scanner. The scanner has a computer-controlled bed with a 10.8-cm transaxial and 8-cm axial field of view. It has no septa and operates exclusively in a three-dimensional list mode. All raw data were first sorted into three-dimensional sinograms, followed by Fourier rebinning and ordered-subsets expectation maximization image reconstruction. Fully three-dimensional list-mode data were collected by using an energy window of 350–750 keV and a time window of 6 nsec. […] The region of interest was analyzed with ASIPro VM version 5.0 (Concorde Microsystems, Knoxville, TN, USA) analysis software.
FIGURE 7 Micro-PET Imaging of NS3/4A activity in orthotopic liver implantation model. […] (B) The accumulation of radioactivity in NS3/4A-HCC36 tumors and HCC36 tumors was measured using a gamma-counter at 2 (white column), 4 (black column), and 6 (gray column) h after probe injection. […]

[4] = test system: liver-implanted NS3/4A-HCC36 or HCC36 tumors; experiment: Radioactivity of liver-implanted tumors, gamma-counter; assay type: in vivo, SCID mice; settings: orthotopic liver model, i.v. 3,700 kBq, 6 h
Procedure: as §1
FIGURE 7 Micro-PET Imaging of NS3/4A activity in orthotopic liver implantation model. The NS3/4A-HCC36 tumors or HCC36 tumors from the ectopic tumors were harvested and transplanted into the left liver lobe of SCID mice (n = 3). After 2 weeks, the 3,700 kBq of TAT-ΔNS3/4A-^124I-FITC was intravenously injected. (A) PET imaging was performed at 4 h after injection of the probe. (B) The accumulation of radioactivity in NS3/4A-HCC36 tumors and HCC36 tumors was measured using a gamma-counter at 2 (white column), 4 (black column), and 6 (gray column) h after probe injection. Data represent mean ± SEM. Student’s t-test analysis of data. Statistical analysis was compared NS3/4A-HCC36 with HCC36. P < 0.05 was considered statistically significant.

[5] = test system: HCC36 cells; experiment: Cellular retention of radioactivity of TAT-ΔNS3/4A-124I-FITC, gamma-counter; assay type: cell-based, Human; settings: control HCC36 cells, 37 kBq probe 37°C 1 h, cultured 0, 4, 6, 8 h with washing, CPM normalized by protein
Procedure: (§2) HCC36 or NS3/4A-HCC36 (1 × 10^5) cells were seeded with DMEM containing 10% serum in a 24-well plate at 37°C in a CO2 incubator overnight. The cells were incubated with 37 kBq of TAT-ΔNS3/4A-^124I-FITC in the presence or absence of 2 μM telaprevir (Vertex, Cambridge MA) at 37°C for 1 h. After probe staining, the cells were washed using DMEM containing 10% serum per 20 min until the end of the experiment. At different time points, the cells were collected by treatment with trypsin. The radioactivity of the cells was then measured using a gamma-counter. The CPM was normalized by protein concentration.
(§3) FIGURE 4 Specificity and half-life of TAT-ΔNS3/4A-^124I-FITC. (A) NS3/4A-HCC36 and HCC36 cells were incubated with 37 kBq of TAT-ΔNS3/4A-^124I-FITC in the presence or absence of 2 μM Telaprevir at 37°C for 1 h. The cells were washed with DMEM containing 10% serum three times per hour. The cells were collected by treatment with trypsin at the indicated times. The radioactivity of the cells was then measured with a gamma-counter. The CPM was normalized by protein concentration. […] Error bar: standard error of triplicate determinations.

[6] = test system: NS3/4A-HCC36 cells; experiment: as above; assay type: cell-based, Human
Procedure: as §2, §3

[7] = Blood kinetics (half-life) of TAT-ΔNS3/4A-124I-FITC in mice; parameters: species or system BALB/c nude mice; settings: mouse, in vivo, iv, 3700 kBq; BALB/c mice, i.v., 4 h after injection, gamma-counter; read-out: radioactivity in the blood
Description: BALB/c nude mice (n = 3) were intravenously injected with 3,700 kBq TAT-ΔNS3/4A-^124I-FITC, and blood samples were periodically removed from the tail vein of the mice. The blood was weighed on an analytical balance and assayed for radioactivity in a multichannel gamma-counter. The initial and terminal half-life of the probe was estimated by fitting the data to a two-phase exponential decay model with Prism 4 software (GraphPad Software, San Diego, CA, USA).
as §3

[8] = Long-term biodistribution in xenograft mice; assay type: in vivo; settings: i.v. 3,700 kBq, gamma-counter
Procedure: Supplementary file Image_4.TIF: Supplementary Figure 4 Long-term biodistribution of TAT-ΔNS3/4A-^124I-FITC in xenograft mice. Mice were injected with 3,700 kBq of TAT-ΔNS3/4A-^124I-FITC. Selected organs and tumors were removed from the mice after 4, 12, and 24 h. The radioactivity of individual organs was measured using a gamma-counter and normalized for sample weights. The biodistribution of TAT-ΔNS3/4A-^124I-FITC in selected organs was expressed as percentage injected dose/g tissue. Data represent mean ± SEM. Click here for additional data file.

[9] = test system: JFH-1-infected HCC36 cells; experiment: Specific retention of probe via flow cytometry; assay type: cell-based, Human; settings: 10 μM probe 1 h, washed three times per hour, 8 h
Procedure: (§4) We also used the WT probe (GRKKRRQRRR-[…]-LKKKYK-FITC) and the scrambled sequence probe (GRKKRRQRRR-[…]-LKKKYK) that could not be activated by protease as a control group to test the specific retention of probe via flow cytometry. HCC36 cells, NS3/4A-HCC36 cells, or JFH-1-infected HCC36 cells were incubated with 10 μM TAT-ΔNS3/4A-FITC or 10 μM TAT-scrambled NS3/4A-FITC in the absence or presence of 2 μM telaprevir (NS3/4A protease inhibitor) at 37 °C for 1 h. The cells were washed with DMEM containing 10% serum three times per hour. After culturing for 1 or 8 h, the fluorescence of viable cells was observed via flow cytometry.
(§5) Supplementary file Image_5.TIF: Supplementary Figure 5 To evaluate the specific retention of probe via flow cytometry, we used the WT probe (GRKKRRQRRR-[…]-LKKKYK-FITC) and the scrambled sequence probe (GRKKRRQRRR-[…]-LKKKYK) that could not be activated by protease as a control group to test the specific retention of probe via flow cytometry. HCC36 cells, NS3/4A-HCC36 cells, or JFH-1-infected HCC36 cells were incubated with 10 μM TAT-ΔNS3/4A-FITC or 10 μM TAT-scrambled NS3/4A-FITC in the absence or presence of 2 μM telaprevir (NS3/4A protease inhibitor) at 37°C for 1 h. The cells were washed with DMEM containing 10% serum three times per hour. After culturing for 1 or 8 h, the fluorescence of viable cells was observed via flow cytometry. Click here for additional data file.

[10] = test system: HCC36 cells; experiment: Specific retention of probe via flow cytometry; assay type: cell-based, Human; settings: control HCC36 cells, 10 μM probe 1 h, washed three times per hour, 8 h
Procedure: as §4, §5

[11] = test system: NS3/4A-HCC36 cells; experiment: Specific retention of probe via flow cytometry; assay type: cell-based, Human; settings: 10 μM probe 1 h, washed three times per hour, 8 h
Procedure: as §4, §5

CSCC[C@H](NC(=O)[C@H](CCC(=O)O)NC(=O)[C@H](CC(=O)O)NC(=O)[C@H](CCC(=O)O)NC(=O)[C@H](CC(=O)O)NC(=O)[C@H](CCC(=O)O)NC(=O)[C@H](CC(=O)O)NC(=O)[C@H](CCC(=O)O)NC(=O)[C@H](CC(=O)O)NC(=O)[C@H](CCCNC(=N)N)NC(=O)[C@H](CCCNC(=N)N)NC(=O)[C@H](CCCNC(=N)N)NC(=O)[C@H](CCC(N)=O)NC(=O)[C@H](CCCNC(=N)N)NC(=O)[C@H](CCCNC(=N)N)NC(=O)[C@H](CCCCN)NC(=O)[C@H](CCCCN)NC(=O)[C@H](CCCNC(=N)N)NC(=O)CN)C(=O)N[C@@H](CCC(=O)O)C(=O)N[C@@H](CCC(=O)O)C(=O)N[C@@H](CS)C(=O)N[C@@H](C)C(=O)N[C@@H](CO)C(=O)N[C@@H](Cc1c[nH]cn1)C(=O)N[C@@H](CC(C)C)C(=O)N[C@@H](CCCCN)C(=O)N[C@@H](CCCCN)C(=O)N[C@@H](CCCCN)C(=O)N[C@@H](Cc1ccc(O)c(I)c1)C(=O)N[C@@H](CCCCNC(=S)Nc1ccc2c(c1)C(=O)OC21c2ccc(O)cc2Oc2cc(O)ccc21)C(=O)O [TAT-ΔNS3/4A-^124I-FITC] (H-GRKKRRQRRRDEDEDEDEMEECASHLKKK[Tyr(3-I)]K(FITC)-OH; N-terminus and C-terminus assumed)
ROI radioactivity, NS3/4A-HCC36 tumors vs HCC36 tumors ([1]; i.v. 3,700 kBq): 2.53 fold | ROI radioactivity, NS3/4A-HCC36 tumors vs HCC36 tumors, after inhibitor treatment ([1]; telaprevir 20 mg/kg/day i.p. for 3 days before probe): 1.31 fold | radioactivity in normal organs (stomach, kidneys) ([2]; i.v. 3,700 kBq, 2, 4, 6 h): high levels of radioactivity were observed in the stomach and kidneys | accumulation of radioactivity, NS3/4A-HCC36 tumors vs HCC36 tumors ([2]; i.v. 3,700 kBq, 6 h, %ID/g, n = 3): 2.7 fold | ROI, implanted NS3/4A-HCC36 tumors vs HCC36 tumors [3]: 4.75 fold | uptake of radioactivity, implanted NS3/4A-HCC36 tumors vs implanted HCC36 tumors [4]: 3.1 fold | radioactivity retained in the cells [5]: not in control HCC36 cells | radioactivity retained in the cells ([6]; 37 kBq probe 37°C 1 h, cultured 0, 4, 6, 8 h with washing, CPM normalized by protein): A high level of radioactivity was detected | radioactivity retained in the cells after inhibitor treatment ([6]; 37 kBq probe + 2 μM telaprevir): radioactivity did not accumulate | tissue uptake at 4 h [7]: 2.6 ± 0.1 %ID/g | radioactivity in tissues at 24 h ([8]; 24 h): did not accumulate in the all of tissues at 24 h | long-term accumulation of probe in kidney (and stomach) ([8]; organs at 4, 12, 24 h): accumulation of probe in kidney and in stomach would quickly reduce at 12 and 24 h

GRKKRRQRRR-ECEEEEESMDDDAH-LKKKYK [scrambled sequence probe]
fluorescence retention after culturing for 8 h [9]: cannot be accumulated in each cell | fluorescence retention after culturing for 8 h [10]: cannot be accumulated in each cell | fluorescence retention after culturing for 8 h [11]: cannot be accumulated in each cell
